Measured values as given in PMC3302888, “Small-Animal PET Imaging of Amyloid-Beta Plaques with [^11C]PiB and Its Multi-Modal Validation in an APP/PS1 Mouse Model of Alzheimer's Disease” (PLoS ONE, 2012).
Where “and” joins values, the source holds several entries; their conditions need not be identical. Identical values can stand only once. Like-named read-outs stand apart in the source and are kept apart here.

Assays:
[1] = tested on: postmortem human brain tissue homogenate (temporal cortex); test: Radioligand saturation binding assay with [^3H]PiB, human brain homogenate
Method: (§1) The frozen mouse hemi-forebrains (50 mg/ml) and human brain samples (100 mg/ml) for the radioligand binding assay were first prepared in tissue homogenization buffer (20 mM Tris base, 1 mM EDTA, 1 mM EGTA, cOmplete Protease Inhibitor Cocktail (Roche Applied Science, Mannheim, Germany)) using a 30 ml hand glass homogenizer (Dounce type, tight fit) (Sartorius Stedim Biotech, Göttingen, Germany) which was used for subsequent ELISA analysis. The stocks were then supplemented with 250 mM sucrose and stored at −70°C for later tracer binding analysis. All other tissue samples were processed for ELISA as reported by Willuweit et al.
(§2) All brain homogenates were diluted in PBE buffer (10 mM dibasic sodium phosphate, 1 mM EDTA, 10% EtOH) to a final concentration of 1000 µg/ml. Synthetic human Aβ1–40 fibrils (EZBioLab, Carmel, IN, USA) were prepared as described by Lockhart et al. (0.5 mg/ml, pH 7.4, 200 rpm at 37°C for 48 h) and were used as positive control at a final concentration of 10 µg/ml (Figure S8).
(§3) Nonspecific binding was determined in the presence of 3 µM unlabeled PiB (ABX, Radeberg, Germany) including 1 h preincubation. Each tissue sample was deployed on two 96-well cell culture plates (Greiner Bio-One, Frickenhausen, Germany) to a final reaction volume of 280 µl per well using 8-channel electronic pipettes (Mettler Toledo, Giessen, Germany) giving 24 octuples of data points per sample.
(§4) The bound and free fractions were seperated by vacuum filtration through 0.3% polyethyleneimine-pretreated GF/B glass filtermats (GE Healthcare/Whatman, Dassel, Germany) using a semi-automated Harvester 96 Mach II M (Tomtec, Hamden, CT, USA). A constant automated 5-cycle pulse-wash program (optimized for flow rate and volume) guaranteed stable harvesting with 1.2 ml PBE washing per well at 2 psi.
(§5) Filters were cut and incubated in Aquasafe300plus scintillator (Zinsser Analytic, Frankfurt, Germany) for 36 h before counting in a Wallac WinSpectral 1414 liquid scintillation counter (PerkinElmer, Rodgau, Germany).
(§6) The specific binding signal under these assay conditions was between 56% (human) and 91% (synthetic protein). Data were analyzed using GraphPad Prism version 5.0 d for Mac (GraphPad Software, La Jolla, CA, USA) to estimate the apparent dissociation constant (Kd), the maximal number of binding sites (Bmax) and the in vitro binding potential (BP) using the one-site and two-site global analysis models.
(§7) Division by Kd in nanomolar units directly results in BP.

[2] = tested on: mouse brain tissue homogenate (APP/PS1 hemi-forebrain); test: Radioligand saturation binding assay with [^3H]PiB, mouse brain homogenate
Method: as §1, §2, §3, §4, §5, §6, §7

[3] = tested on: APP/PS1 mouse brain; design: method as in PMID 16291932; details: very old hemizygous APP/PS1 animals; classical Scatchard analysis; cited from earlier work
[4] = tested on: human brain; design: method as in PMID 16291932; details: humans; cited from earlier work
[5] = tested on: Aβ plaques; test: Small-animal PET of mouse brain with [^11C]PiB, cerebellum as reference region; format: in vivo; details: for BPND (MRTM2, Ichise et al., 2003) mean ± SD: neocortex target, cerebellum reference; for PET BPND neocortex: [^3H]PiB/[^11C]PiB cocktail, 30 min scan
Excerpt: Most of the small-animal PET data was acquired with a microPET FOCUS F120 scanner (Siemens Medical Solutions, Malvern, USA). In the combined multi-modal experiment PET data for the four animals was acquired with a docked Siemens Inveon PET/CT system (Siemens Medical Solutions, Knoxville, USA), [66], [67].
After induction of anesthesia and placement of the catheter systems, the animals were placed with their heads in the center of the field of view and were fixed in the scanner in prone head first position (HFP). At the beginning of the PET scanning procedure, a 9 min transmission scan (^68Ge rod source, Focus F120) or CT scan (Inveon) was performed in all animals.
[^11C]PiB was given via the catheter system intravenously in a slow bolus, followed by flushing with isotonic saline solution such that the total applied volume was 0.22±0.06 ml. The amount of injected activity was controlled real-time with registered prompts such that they ranged between 150000 to 200000 at the end of [^11C]PiB application, ensuring a dead time <5% at 30 min p.i.. The radioactivity in the syringe was measured immediately before and after injection with a Capintec CRC 15R (Capintec Inc, NJ, USA) dose calibrator. The time between measurements was 2 to 3 min.
Dynamic data acquisition was performed in 3D listmode for 30 or 60 min starting immediately with injection of the tracer. The emission data were normalized and corrected for decay and dead time. The resulting sinograms were reconstructed with FBP (filtered back-projection using a ramp filter with a cut-off at the Nyquist frequency) into 2, 3, 6, 12, 60 and 120 frames of equal length used for motion correction, ratio measurements and image production and 52 frames (24×10 s, 12×30 s, 10×120 s, 6×300 s) and 162 frames (120×1 s, 24×10 s, 8×30 s, 10×300 s) for time-activity-curve (TAC) generation. The image volume consisted of 128×128×95 voxels, with a size of 0.866×0.866×0.796 mm^3 per voxel for the Focus F120 scanner and 128×128×159 voxels, with a size of 0.776×0.776×0.796 mm^3 per voxel for the Inveon scanner.
To assess varying PiB retention of individual animals within the study collective and to verify the consistency of results, three quantification methods were used similar to Maeada et al.. First, [^11C]PiB uptake in the target region was divided by [^11C]PiB uptake in the cerebellum as measured in a static 10 min-frame (20–30 min). Second, the tissue ratio methods as proposed by Ito et al. were calculated. Third, the multilinear reference tissue model 2 (MRTM2, [45]) was fitted to cortex time-activity curves (TACs) (merged neocortex) after reduction of parameters by estimating individual efflux rate constants for [^11C]PiB from the reference region (k2′) with the MRTM [45] and four regional cortical time-activity curves.
Parametric images of [^11C]PiB retention (BPND maps (MRTM2)) were generated for four representative mice (Figure 2 and S1). For all analyses, the cerebellum was used as the reference region. To quantify the dynamic data, TACs with high initial time resolution (162 frames: 120×1 s, 24×10 s, 8×30 s, 10×300 s) were used (Figure 1).
Then, the radioactivity of the whole animal was measured in a Capintec dose calibrator, the animal killed by decapitation, the whole brain taken out and blood drawn for biodistribution and radioactivity measurement. One half of the brain was dissected for regional brain biodistribution (olfactory system, telencephalon, cerebellum and remaining brain structures (diencephalon, midbrain)) and deep-frozen immediately after gamma counting for later ELISA analysis of soluble and insoluble Aβx–40 and Aβx–42. […]

CNc1ccc(-c2nc3ccc(O)cc3s2)cc1 [[^3H]PiB]
in vitro binding potential (BP) ([1]; huAD-0 (mild human AD, Cerad-0, Braak II), single binding site model): ~0 | in vitro binding potential (BP) ([1]; huAD-C (severe human AD, Cerad-C, Braak V), single binding site model): 38 and 38.2±4.7 and 38.2 | tracer concentration at which saturation binding was reached ([1]; huAD-C homogenate): around 8 nM | Bmax ([1]; huAD-C homogenate, single binding site model): 200 ± 12 fmol/mg | Kd ([1]; huAD-C homogenate, single binding site model, read-out: Kd): 5.2 ± 0.9 nM | Bmax of the high-affinity component ([1]; huAD-C, two site binding model): 156.7 ± 7.3 fmol/mg | Kd ([1]; huAD-C, two site binding model, read-out: Kd of the high-affinity component): 3.4 ± 1.4 nM | in vitro binding potential (BP) ([1]; huCTL (human control brain, Cerad-0, Braak I), single binding site model): ~0 | in vitro binding potential (BP) ([2]; mouse control brain (msCTL), total binding not different to nonspecific binding): ~0 | in vitro binding potential (BP) ([2]; tg-old mouse brain tissue, single binding site model): 11.9±0.9 and 11.9 | in vitro binding potential (BP) ([2]; tgtg-old mouse brain tissue, single binding site model): 69 and 69.2±2.7 and 69.2 | Bmax of the high-affinity component ([2]; tgtg-old tissue, two site binding model): 289.3 ± 123.9 fmol/mg | Kd ([2]; tgtg-old tissue, two site binding model, read-out: Kd of the high-affinity component): 5.7 ± 4.1 nM | in vitro binding potential (BP) ([2]; tgtg-young mouse brain tissue, single binding site model): 14.3±0.9 and 14.3 | BP of the high-affinity component [3]: 78 | BP of high-affinity binding sites [4]: 636

[11CH3]Nc1ccc(-c2nc3ccc(O)cc3s2)cc1 [[^11C]PiB, N-[^11C-methyl]-6-OH-BTA-1]
BPND (MRTM2, Ichise et al., 2003) mean ± SD ([5]; ctl-old (N = 5)): -0.08 ± 0.01 | PET BPND neocortex ([5]; individual animals AD1, AD2 (tgtg-young, 9 months)): 0.06 | PET BPND neocortex ([5]; individual animals CTL1, CTL2 (ctl-young)): −0.06 and −0.07 | BPND (MRTM2, Ichise et al., 2003) mean ± SD ([5]; tg-old (N = 5)): 0.28 ± 0.06 | BPND (MRTM2, Ichise et al., 2003) mean ± SD ([5]; tgtg-old (N = 7)): 0.51 ± 0.13 | BPND (MRTM2, Ichise et al., 2003) mean ± SD ([5]; tgtg-young (N = 5)): 0.12 ± 0.04
